Measurements from ChEMBL document CHEMBL1158480, “In silico prediction of volume of distribution in human using linear and nonlinear models on a 669 compound data set” (J Med Chem, 2009).

Key:
[1] = Volume of distribution at steady state in human at 1 mg/kg; type: ADME, organism-based; design: dose 1 mg/kg; settings: in vivo, read-out: Vdss
[2] = Clearance in human at 200 ug; type: ADME, organism-based; settings: in vivo
[3] = Volume of distribution at steady state in human; settings: in vivo
[4] = Volume of distribution at steady state in human at 50 mg, iv; type: ADME, organism-based; settings: in vivo, read-out: Vdss
[5] = Volume of distribution at steady state in human at 25 mg, iv; type: ADME, organism-based; settings: in vivo, read-out: Vdss
[6] = Volume of distribution at steady state in human at 1 mg/kg, iv administered 20 mins infusion; type: ADME, organism-based; design: dose 1 mg/kg, route intravenous; settings: in vivo, read-out: Vdss
[7] = Volume of distribution at steady state in human at 150 mg, iv; type: ADME, organism-based; settings: in vivo, read-out: Vdss
[8] = Volume of distribution at steady state in human administered three sequential 4-h infusion at 1, 5 and 15 mg/hr; type: ADME, organism-based; settings: in vivo, iv, read-out: Vdss
[9] = Mean residence time in human at 2 mg, iv; type: ADME, organism-based; settings: in vivo
[10] = Clearance in human at 2 mg, iv; type: ADME, organism-based; settings: in vivo
[11] = Half life in human at 2 mg, iv; type: ADME, organism-based; settings: in vivo
[12] = Volume of distribution at steady state in human administered 1 to 12 g doses with 2 to 3.5 hrs iv infusion; type: ADME, organism-based; settings: in vivo, read-out: Vdss
[13] = Volume of distribution at steady state in human at 130 mg administered 90 mins infusion; type: ADME, organism-based; settings: in vivo, iv, read-out: Vdss
[14] = Volume of distribution at steady state in human at 2.5 mg, iv administered as bolus dose; type: ADME, organism-based; settings: in vivo, read-out: Vdss
[15] = Volume of distribution at steady state in human dosed 1 hr iv infusion; settings: in vivo
[16] = Volume of distribution at steady state in human at 0.1 mg/kg administered 15 mins infusion; type: ADME, organism-based; design: dose 0.1 mg/kg; settings: in vivo, iv, read-out: Vdss
[17] = Total clearance in human at 0.1 mg/kg administered 15 mins infusion; type: ADME, organism-based; design: dose 0.1 mg/kg; settings: in vivo, iv
[18] = Volume of distribution in human at 100 mg administered 30 mins infusion; type: ADME, organism-based; settings: in vivo, iv
[19] = Volume of distribution at steady state in human at 0.2 mg, iv; type: ADME, organism-based; settings: in vivo, read-out: Vdss
[20] = Clearance in human administered three way cross over study in 11, 10 and 12 healthy subjects at 5, 10, 15 mg dose respectively as 1 hr infusion; type: ADME, organism-based; settings: in vivo, intravenous
[21] = Mean residence time in human administered three way cross over study in 11, 10 and 12 healthy subjects at 5, 10, 15 mg dose respectively as 1 hr infusion; type: ADME, organism-based; settings: in vivo, intravenous
[22] = Half life in human given 31 administration across 6 doses 2.5 to 25 mg administered 30 mins infusion each dose separated by 13 days; type: ADME, organism-based; settings: in vivo, iv
[23] = Clearance in human given 31 administration across 6 doses 2.5 to 25 mg administered 30 mins infusion each dose separated by 13 days; type: ADME, organism-based; settings: in vivo, iv
[24] = Mean residence time in human given 31 administration across 6 doses 2.5 to 25 mg administered 30 mins infusion each dose separated by 13 days; type: ADME, organism-based; settings: in vivo, iv
[25] = Half life in human administered three way cross over study in 11, 10 and 12 healthy subjects at 5, 10, 15 mg dose respectively as 1 hr infusion; type: ADME, organism-based; settings: in vivo, intravenous
[26] = Volume of distribution at steady state in human at 2.8 mg, iv; type: ADME, organism-based; settings: in vivo, read-out: Vdss
[27] = Volume of distribution at steady state in human at 0.149 mg/kg, iv; type: ADME, organism-based; design: dose 0.149 mg/kg, route intravenous; settings: in vivo, read-out: Vdss
[28] = Volume of distribution at steady state in human at 100 mg, iv; type: ADME, organism-based; settings: in vivo, read-out: Vdss
[29] = Volume of distribution at steady state in human at 5 mg, iv; type: ADME, organism-based; settings: in vivo, read-out: Vdss
[30] = Volume of distribution at steady state in human at 10 mg, iv; type: ADME, organism-based; settings: in vivo, read-out: Vdss
[31] = Volume of distribution at steady state in human at 15 ng/kg/min, iv administered 150 mins infusion; type: ADME, organism-based; settings: in vivo, read-out: Vdss

`CC(C)(N)CC(=O)N[C@@H]1CCc2ccccc2N(Cc2ccc(-c3ccccc3-c3nnn[nH]3)cc2)C1=O` showed a Vd [1] of 0.2 L/kg.

For `CC(=O)Nc1ccc(C2=NNC(=O)C[C@H]2C)cc1`, the clearance [2] was 33.3 mL/min and the Vd [3] was 2.38 L/kg.

Compound `COC(=O)c1cnc2n1CCc1ccccc1C2=C1CCN(CCc2ccc(OCc3ccc4ccccc4n3)cc2)CC1` has a Vd [4] of 6.03 L/kg.

`CC(=O)CC(c1ccc([N+](=O)[O-])cc1)c1c(O)c2ccccc2oc1=O` (stereo not drawn) [ACENOCOUMAROL] showed a Vd [5] of 0.24 L/kg.

`C[C@@H]1[C@H](O)[C@@H](C)/C=C/C=C/C=C/C=C/C=C/C=C/C=C/[C@H](O[C@@H]2O[C@H](C)[C@@H](O)[C@H](N)[C@@H]2O)C[C@@H]2O[C@](O)(C[C@@H](O)C[C@@H](O)[C@H](O)CC[C@@H](O)C[C@@H](O)CC(=O)O[C@H]1C)C[C@H](O)[C@H]2C(=O)O` [AMPHOTERICIN B] gave a Vd [3] of 0.62 L/kg.

`CC(=O)N(CCC(CCN1CCCCC1)(C(N)=O)c1ccccc1Cl)C(C)C` (stereo not drawn) [BIDISOMIDE] gave a Vd [6] of 2.6 L/kg.

For `COCCOC[C@H](CC1(C(=O)N[C@H]2CC[C@@H](C(=O)O)CC2)CCCC1)C(=O)O` [CANDOXATRILAT], the Vd [7] was 0.25 L/kg.

`COc1ccccc1Oc1c(NS(=O)(=O)c2ccc(C)cn2)nc(-c2ccnc(-c3nnn[nH]3)c2)nc1OCCO` [CLAZOSENTAN] showed a Vd [8] of 0.23 L/kg.

In the case of `CCc1nc2c(N)nc3ccccc3c2n1CCCCNS(C)(=O)=O` [CPG-52852], the MRT [9] is reported as 4.7 h, the clearance [10] is reported as 7.7 mL/min/kg and the half-life [11] is reported as 7.1 h.

For `Nc1ccn([C@@H]2O[C@H](CO)[C@@H](O)[C@@H]2O)c(=O)n1` [CYTARABINE], the Vd [12] was 0.67 L/kg.

For `O=C(O)c1ccc(-n2nc(-c3ccccc3O)nc2-c2ccccc2O)cc1` [DEFERASIROX], the Vd [13] was 0.2 L/kg.

With `OCCN1CCN(CCCN2c3ccccc3Sc3ccc(C(F)(F)F)cc32)CC1` [FLUPHENAZINE] the Vd [14] was 2.9 L/kg.

In the case of `C[C@]12CC[C@@H]3c4ccc(O)cc4C[C@@H](CCCCCCCCC[S+]([O-])CCCC(F)(F)C(F)(F)F)[C@H]3[C@@H]1CC[C@@H]2O` (stereo partly drawn) [FULVESTRANT], the Vd at 1 h [15] is reported as 4.15 L/kg.

With `Cc1nccn1CCC(C(N)=O)(c1ccccc1)c1ccccc1` [IMIDAFENACIN] the Vd [16] was 1.51 L/kg and the clearance [17] was 492 mL/min.

`CC1(C)[C@@H](O[C@H]2O[C@H](C(=O)O)[C@@H](O)[C@H](O)[C@H]2O[C@H]2O[C@@H](C(=O)O)[C@H](O)[C@@H](O)[C@@H]2O)CC[C@]2(C)[C@H]3C(=O)C=C4[C@@H]5C[C@@](C)(C(=O)O)CC[C@]5(C)CC[C@@]4(C)[C@]3(C)CC[C@@H]12` [ISOGLYCIRRHIZINATE] gave a Vd [18] of 0.05 L/kg.

Work on `C[C@@H]1CN([C@H]2CC[C@](C#N)(c3ccc(F)cc3)CC2)CC[C@]1(C(=O)O)c1ccccc1` [LEVOCABASTINE] yielded a Vd [19] of 1.17 L/kg.

Compound `CN(c1nc2ccccc2s1)C1CCN(C[C@H](O)COc2ccc(F)c(F)c2)CC1` [LUBELUZOLE] has a clearance [20] of 1.8 mL/min/kg, an MRT [21] of 28.7 h and a half-life [22] of 19.8 h. The clearance [23] was 1.54 mL/min/kg, the MRT [24] was 23.3 h and the half-life [25] was 23.5 h.

In the case of `CC(C)Oc1ccccc1N1CCN(Cc2cccc(C(=O)N3CCCCC3)c2)CC1` [MAZAPERTINE], the Vd [26] is reported as 1.54 L/kg.

`CO[C@H]1C[C@H](O[C@H]2[C@H](C)[C@@H](O[C@@H]3O[C@H](C)C[C@H](N(C)C)[C@H]3O)[C@@H](C)C[C@@]3(CO3)C(=O)[C@H](C)[C@@H](O)[C@@H](C)[C@@H](C)OC(=O)[C@@H]2C)O[C@@H](C)[C@@H]1O` [OLEANDOMYCIN] showed a Vd [3] of 0.77 L/kg.

Work on `Cc1nc(=O)c(C#N)c(NCc2cccnc2)[nH]1` [PELRINONE] yielded a Vd [27] of 0.39 L/kg.

Work on `O=C(O)CCCCO/N=C(/c1cccnc1)c1cccc(C(F)(F)F)c1` [RIDOGREL] yielded a Vd [28] of 0.43 L/kg.

`Cc1nc2sccn2c(=O)c1CCN1CCC(=C(c2ccc(F)cc2)c2ccc(F)cc2)CC1` [RITANSERIN] gave a Vd [29] of 1.41 L/kg.

Compound `CN(c1nc2ccccc2s1)C1CCN(CC(O)COc2ccc(F)cc2)CC1` (stereo not drawn) [SABELUZOLE] has a Vd [30] of 5.5 L/kg.

For `CCCCC[C@H](O)CC[C@@H]1[C@H]2Cc3cccc(OCC(=O)O)c3C[C@H]2C[C@H]1O` [TREPROSTINIL], the Vd [31] was 0.23 L/kg.
